According to PMC12498271, “A First-In-Human Dose-Escalation Phase I Study of Basroparib, a Tankyrase Inhibitor, in Patients with Advanced-Stage Solid Tumors” (Cancer Research Communications, 2025):
Marks after values point to notes of the source that are not given here.

What was measured:
[1] = GLP toxicology study in dog; cited from earlier work
[2] = phase I plasma pharmacokinetics (HPLC-MS/MS, non-compartmental); format: in vivo, human; settings: for AUC0–6 / AUClast / Cmax / Tmax / t1/2: Day 1; for AUC0–6 / AUClast / Cmax / AUC0–6,ss / Cmax,ss: geometric mean (geometric CV%); for Tmax / Tmax,ss: median (min, max); for t1/2: arithmetic mean (±SD); for AUC0–6,ss / Cmax,ss / Tmax,ss: Day 8
Description: Blood samples for PK analysis were collected with K2EDTA tubes in serial before dose and at 0.25, 0.5, 1, 1.5, 2, 3, 4, 6, 8, 12, and 24 hours after dose on cycle 1 day 1 and before dose and at 1, 2, 3, 4, and 6 hours after dose on cycle 1 day 8 and before dose on days 1 and 15 of cycle 2 and beyond. Plasma concentrations of basroparib and its major metabolite, STP06-1007, were determined using the validated high-performance liquid chromatography/tandem mass spectrometry method at the bioanalytic laboratory (Celerion, Inc.). The analytic range (lower limit of quantitation – upper limit of quantitation) for basroparib and STP06-1007 was 0.05 to 250 ng/mL. Non-compartmental PK parameters were calculated using Phoenix WinNonlin version 8.4.0 (Certara).

[3] = Cohort 1 (30 mg, once daily) N = 3
[4] = Cohort 2 (60 mg, once daily) N = 4
[5] = Cohort 3 (120 mg, once daily) N = 3
[6] = Cohort 4 (180 mg, once daily) N = 5
[7] = Cohort 5 (240 mg, once daily) N = 3
[8] = Cohort 6 (300 mg, once daily) N = 3
[9] = Cohort 7 (360 mg, once daily) N = 4

## COCCOc1cc(F)c(N2CCN(c3nc4c(nnn4C)c(=O)[nH]3)CC2)c(F)c1 [basroparib]
[1]
  GI toxicity: has not been seen inducing any GI toxicity
[2]; Cmax and AUCs
  exposure following 360 mg dose compared with 300 mg dose: slightly lower
[2]; [3]
  AUC0–6: 2,464.7 (50.60) hours × ng/mL
  AUClast: 4,845.4 (50.38) hours × ng/mL
  Cmax: 720.7 (37.01) ng/mL
  Tmax: 3.0 (3, 3) hours
  AUC0–6,ss: 2,584.9 (22.71) hours × ng/mL
  Cmax,ss: 789.0 (5.20) ng/mL
  Tmax,ss: 3.0 (3, 6) hours
[2]; Cohort 1 (30 mg, once daily), two patients
  t1/2: 6.0 (±3.69)^a hours
[2]; [4]
  AUC0–6: 3,169.7 (44.98) hours × ng/mL
  AUClast: 6,415.2 (69.39) hours × ng/mL
  Cmax: 968.3 (30.69) ng/mL
  Tmax: 3.0 (3, 4) hours
  AUC0–6,ss: 3,703.0 (23.05) hours × ng/mL
  Cmax,ss: 1,046.3 (49.51) ng/mL
  Tmax,ss: 3.5 (3, 6) hours
[2]; Cohort 2 (60 mg, once daily), three patients
  t1/2: 11.0 (±5.33)^b hours
[2]; [5]
  AUC0–6: 5,425.0 (51.50) hours × ng/mL
  AUClast: 15,835.9 (25.14) hours × ng/mL
  Cmax: 1,532.4 (68.26) ng/mL
  Tmax: 3.0 (3, 24) hours
  AUC0–6,ss: 6,447.2 (65.26) hours × ng/mL
  Cmax,ss: 1,526.2 (44.31) ng/mL
  Tmax,ss: 3.0 (3, 4) hours
[2]; Cohort 3 (120 mg, once daily), two patients
  t1/2: 7.6 (±0.42)^a hours
[2]; [6]
  t1/2: 7.7 (±3.13) hours
  AUC0–6: 8,233.8 (67.46) hours × ng/mL
  AUClast: 16,504.6 (61.80) hours × ng/mL
  Cmax: 2,345.5 (68.30) ng/mL
  Tmax: 3.0 (2, 3) hours
  AUC0–6,ss: 10,506.4 (121.25) hours × ng/mL
  Cmax,ss: 2,833.1 (105.02) ng/mL
  Tmax,ss: 3.0 (3, 4) hours
[2]; [7]
  AUC0–6: 7,622.5 (57.67) hours × ng/mL
  AUClast: 15,893.0 (18.35) hours × ng/mL
  Cmax: 2,417.1 (54.86) ng/mL
  Tmax: 3.0 (2, 6) hours
  AUC0–6,ss: 10,509.6 (74.82) hours × ng/mL
  Cmax,ss: 3,139.9 (86.00) ng/mL
[2]; Cohort 5 (240 mg, once daily), two patients
  t1/2: 6.0 (±0.39)^a hours
[2]; [8]
  AUC0–6: 10,968.4 (109.20) hours × ng/mL
  AUClast: 24,221.3 (103.59) hours × ng/mL
  Cmax: 2,894.1 (115.67) ng/mL
  Tmax: 3.0 (2, 4) hours
[2]; Cohort 6 (300 mg, once daily), two patients
  t1/2: 6.2 (±2.70)^a hours
[2]; [9]
  t1/2: 5.8 (±0.94) hours
  AUC0–6: 9,022.0 (45.09) hours × ng/mL
  AUClast: 19,692.3 (32.54) hours × ng/mL
  Cmax: 2,779.1 (46.78) ng/mL
  Tmax: 3.5 (3, 6) hours
